From patent publication US8193384B2, “Polymer-bound phosphitylating reagents for the synthesis of organophosphorus compounds” (priority 2005, dated 2012)

How the values were obtained:
[1] = tested on: mismatched 12-mer modified or unmodified ODNs of 3′-d(CCCCCCCCCCCC); assay: Base-discriminating properties: UV melting with mismatched ODNs; assay type: binding; conditions: with mismatched 12-mer modified or unmodified 3′-d(CCCCCCCCCCCC)
[2] = tested on: complementary chains of modified and unmodified ODNs; assay: Thermal denaturation studies (UV melting, Tm) of ODN duplexes; assay type: binding; conditions: for Tm: modified oligomer bound to its complementary unmodified oligomer

Substance | Tm [2] [°C] | ΔTm [2] | further results
Modified d(AAAAAAAAAAAA) (SEQ ID NO: 1) Containing Diphosphodiester Internucleotide Linkage (DNA, backbone not given here; contains diphosphodiester internucleotide linkage(s), further chemistry not fully specified) [Compound 13] | 39.7 |  | melting transition [1]: no melting transition was observed
Modified d(ATATATATATAT) (SEQ ID NO: 5) Containing Diphosphodiester Internucleotide Linkage (DNA, backbone not given here; contains a diphosphodiester internucleotide linkage) [Compound 17] |  | +1.8 °C | 
Modified d(GGGGGGGGGGGG) (SEQ ID NO: 4) Containing Diphosphodiester Internucleotide Linkage [Compound 16] |  |  | binding affinity towards modified 3′-d(CCCCCCCCCCCC) compared with unmodified 3′-d(CCCCCCCCCCCC) [2]: higher binding affinity
Modified d(TATATATATATA) (SEQ ID NO: 6) Containing Diphosphodiester Internucleotide Linkage (DNA, backbone not given here; contains a diphosphodiester internucleotide linkage) [Compound 18] |  | +3.2 °C | 
Modified d(TTTTTTTTTTTT) (SEQ ID NO: 2) Containing Diphosphodiester Internucleotide Linkage (diphosphodiester internucleotide linkage) [Compound 14] | 39.5 |  | 
